Source: the pKa sets of Baltruschat and Czodrowski (2020)

Conditions: acidic group

SMILES	pKa
[NH3+][C@@H](CCC(=O)O)C(=O)O	2.08
O=S(=O)(Nc1ncccn1)c1ccc(O)cc1	6.37
CC(C)(C(N)=O)S(=O)(=O)NC(N)=O	5.15
O=P([O-])([O-])C([NH2+]Cc1ccccn1)c1ccccc1O (stereo unspecified)	10.2
O=S(=O)(Nc1ccccc1)c1ccccc1	8.22
O=C(O)C1CCc2ccccc2O1 (stereo unspecified)	3.38
O=C(O)c1cccc(Oc2ccccc2)c1	3.95
Cc1cccc(C(=O)N(C)O)c1	8.52
C=C(C)/C=C(\C)O	10.4
Cc1ccc(C(=O)O)cc1Cl	4.06
COc1cc(S(C)=O)ccc1-c1nc2ccnnc2[nH]1 (stereo unspecified)	8.7
SCc1c[nH]cn1	9.54
O=C(O)c1cccc(=O)cc1	3.2
O=C(O)C1CCCC1	4.99
NS(=O)(=O)C(F)(F)Cl	6.5
O=C(/C=N/O)c1ccccc1	8.31
O=C(O)c1ccc(Br)s1	3.3
NS(=O)(=O)c1ccc(Cl)cc1	9.5
COc1ccc(C(=O)O)c(C)c1	4.54
N/C(=N\O)c1ncnc2nc[nH]c12	9.4
[O-]c1[nH+]c(O)nc2nc[nH]c12	7.56

SMILES	pKa
O=CC1c2ccccc2-c2ccccc21	7.4
COc1cc(S(C)=O)ccc1-c1nc2ncncc2[nH]1 (stereo unspecified)	8.91
O=[N+]([O-])c1ccc(O)cc1	7.13
Cc1ccc(C(=O)Oc2ccccc2)c(O)c1	9.44
CC(=O)NC(Cc1c[nH]c[nH+]1)C(=O)O (stereo unspecified)	2.94
COc1ccccc1/C=C/C=N/O	10.8
Sc1ccc(Br)cc1	5.8
CC(=O)c1cc(C)c(C)cc1O	11.6
Nc1ccc(S(=O)(=O)Nc2ccc(N)nc2)cc1	8.82
Oc1cccc2c1CCCC2	10.5
c1ccc2cc3[nH]cnc3cc2c1	12.5
CC(C)(C)CCC(=O)O	4.83
CCc1nnn[nH]1	5.59
Nc1ccc(S(=O)(=O)Nc2nccs2)cc1	7.25
NC(=O)/C(=N/O)c1ccccc1	9.55
NC(=O)CCCCCCCCC(=O)NO	9.49
O=C1NC(=O)C2CCC12 (stereo unspecified)	9.63
COCCSC(C)O (stereo unspecified)	14.2
NC(=O)Cc1ccc(C(=O)O)cc1	4.06
CC(C)=CC[C@@H]1C(=O)C(C(=O)CC(C)C)=C(O)[C@H]1O	2.35
CS(=O)(=O)c1ccc(NS(=O)(=O)C(F)(F)F)cc1	2.84

SMILES	pKa
COc1cccc(C=O)c1O	7.91
Cc1cc(C(C)C)ccc1O	10.6
CCCCCCC(=O)NO	9.62
O=C(O)C[NH+](CCNS(=O)(=O)c1ccc(CCBr)cc1)CC(=O)O	2.15
O=C(O)C(c1ccc(-c2ccccc2)cc1)C1(O)CCCC1 (stereo unspecified)	3.65
O=S(O)Cc1ccccc1	1.86
N#Cc1ccccc1O	7.32
Cc1cccc(O)c1C	10.5
CC(=O)S	3.71
CC[NH+](CC)Cc1cc(F)ccc1O	8.23
C[N+]1(CCCC(=O)O)CCCCC1	4.11
O=C(O)C[Se]c1cccc([N+](=O)[O-])c1	3.55
CSC(=S)N(C)CC(=O)O	2.98
CS(=O)c1ccc(O)cc1 (stereo unspecified)	8.28
SCC[NH2+]CCc1ccccc1	7.85
Nc1cc2ccccc2cc1O	9.35
C[n+]1ccc(C(=O)c2ccccc2)cc1	12.2
O=C1COC(=O)C1Br (stereo unspecified)	2.23
CC1(C)NC(=O)NC1=O	9.19
COc1ccc2c(c1)nnn2O	5.07
[NH3+][C@@H](Cn1cccn1)C(=O)O	2.2

SMILES	pKa
Cc1ccc2cccc(O)c2n1	10.1
CSc1ncnc2[nH]ncc12	9.65
Cc1ccc(O)c2[n+]1CCS2	4.7
O=C(O)c1ncccn1	2.85
O/C(=C/c1cc[nH+]cc1)c1ccccc1	4.19
O=CCC=O	4.57
CN(C)c1nc2ncncc2[nH]1	9.73
CC1(C)CC(=O)C(C=O)C(=O)C1	3.65
c1ncc2[nH]nnc2n1	4.88
NC(=O)C(CC(=O)O)c1ccccc1 (stereo unspecified)	4.23
O=C(O)C#CC[NH+]1CCOCC1	1.79
Nc1nc2[nH]cnc2c(O)[nH+]1	3
CC(=O)N1CS(=O)(=O)C[C@H]1C(=O)O	2.23
CC1CCC(O)(C(C(=O)O)c2ccc(-c3ccccc3)cc2)CC1 (stereo unspecified)	3.45
CC(C)C1NC(=S)NC1=O (stereo unspecified)	8.7
O=S(=O)([N-]c1ncc(Cl)cn1)c1ccc(O)cc1	8.84
Cc1ccc(C)c(C(=O)O)c1	3.97
Cc1ccc(C(=O)S)cc1	2.59
CC(=O)C(Cc1ccc([N+](=O)[O-])cc1)C(C)=O	9.54
S=C(NC(=S)c1ccccc1)Nc1ccccc1	10.7

Same assay, conditions: basic group

SMILES	pKa
CNc1cc[n+](C)c([O-])n1	4.47
c1ccc2cc3ncccc3cc2c1	4.92
CC(C)N(C)/C=[NH+]/c1ccc(-c2c[nH]cn2)cc1	5.52
CSc1ccc(N)cc1Cl	3.38
CC1=NCCCCN1	12.7
CC[NH+](CC)CCCC(C)Nc1cc(OC)cc2ccc[nH+]c12 (stereo unspecified)	-1.33
Cc1ccc2nc(C)c3c(c2c1)OC(C)C3C (stereo unspecified)	7.65
CN1C[C@@H](C(=O)[O-])C[C@@]2(O)c3cccc4[nH]cc(c34)C[C@@H]12	9.2
[SH2+]c1cccc2ncccc12	3.31
COc1cc(S(C)=O)ccc1-c1nc2ccnnc2[nH]1 (stereo unspecified)	3.63
CC(N)C(=O)[O-] (stereo unspecified)	9.83
SCc1c[nH]cn1	6.54
COc1cc([N+](=O)[O-])cc(C(=O)N[C@@H]2C[C@H]3CC[C@@H](C2)N3Cc2ccccc2)c1OC	8.7
Nc1cc2ccccc2cc1[N+](=O)[O-]	1.48
O=CC1c2ccccc2-c2ccccc21	6.2
CCCNc1ncnc2c1cnn2C	4.25
COc1cc(S(C)=O)ccc1-c1nc2ncncc2[nH]1 (stereo unspecified)	2.69
CC(C)(C)N1C2CCCC21 (stereo unspecified)	9.22
CCN1CCC[C@@H]1CNC(=O)c1c([O-])c(Br)cc(Br)c1OC	9.12
O=[N+]([O-])c1ccc([O-])c(CN2CCOCCOCCOCCOCCOCC2)c1	9.59
Nc1ccc(S(=O)(=O)Nc2ccc(N)nc2)cc1	4.19
c1ccc2cc3[nH]cnc3cc2c1	5.24
Nc1ccc(S(=O)(=O)Nc2ccc[nH+]c2)cc1	1.59
CC1=NCCCC1	9.57

SMILES	pKa
Cc1ccc([N+](=O)[O-])c2c(NCCC[NH+](C)C)cc(-c3ccccc3)nc12	5.43
Cc1cnc2c(C)ccc([N+](=O)[O-])c2c1NCCC[NH+](C)C	6.1
CCc1ccc(N)cc1	5.16
c1ccc(CSc2ccncc2)cc1	5.41
Nc1ccc(S(=O)(=O)Nc2nccs2)cc1	2.35
CC(C)(C)N1NC2CCC1C21CC1 (stereo unspecified)	9.33
NC(CO)CO	8.63
CN1C=C(C#N)C=CC1	2.7
CN(C)CCCN(C)CCC[NH+](C)C	9
CC1CNCCN1 (stereo unspecified)	9.9
COc1ccc(NCCS)cc1	5.3
Nc1cccc2cccc([N+](=O)[O-])c12	2.79
CC1=Nc2ccccc2N=C(C)C1	3.85
c1ccc(-c2cc[nH+]cc2)nc1	1.19
Cc1ccc(C2CCC[NH+]2C)cn1 (stereo unspecified)	3.78
NCCc1ccccn1	9.51
CCN(CC)CCNc1ccnc2ccccc12	8.95
Nc1ccc2ccc([N+](=O)[O-])cc2c1	3.13
CNNC	5.2
OCCN1CCNCC1	9.33
O[C@@H]1[C@H](O)[C@@H](n2cnc3cncnc32)OC[C@@H]1O	1.8
NCCCC[NH3+]	9.36
O=C(Cc1cnccn1)c1ccccc1	0.33
c1ccc2c(c1)CNCCCNCc1ccccc1OCCCO2	10

SMILES	pKa
CC(C=C(c1cccs1)c1cccs1)N1CCCCC1 (stereo unspecified)	8.46
CCN(CC)CCC[C@@H](C)[C@H]1CC[C@H]2[C@@H]3CC[C@@H]4C[C@H](O)CC[C@]4(C)[C@H]3C[C@H](O)[C@]12C	10.3
[NH3+]c1cccc(-c2nc3ccccc3s2)c1	0.07
O=C([O-])Cc1nc2ccccc2[nH]1	4.1
COc1cccc(/N=C/N(C)C)c1	8.6
CC(C)CSCCN	8.73
CN1CCCC1c1ccccc1 (stereo unspecified)	8.8
Oc1ccccc1CNC1CCCCC1	8.67
Cc1ccc(-c2cnc(-c3ccc(Cl)cc3)o2)cc1	0.58
N[C@H]1CCCC[C@@H]1C(=O)[O-]	10.1
CCCCNCCC(=O)[O-]	10.6
CCOc1ccc2[nH]c(CC)nc2c1	6.27
C(COCCc1nnn[nH]1)OCCc1nnn[nH]1	4.79
Nc1ccc[nH+]c1	-1.37
Cn1cnc2ncn(C)c2c1=O	2.16
CC(C)N(C)/C=N/c1ccc(-c2c[nH]cn2)cc1	8.72
COc1ccc2c3c1O[C@H]1CCC[C@H]4[C@@H]([C@@H]2O)N(C)CC[C@]314	9.41
CN(C)c1ncccn1	3.96
Cc1nccc2c1[nH]c1ccc([N+](=O)[O-])cc12	6.24
CCN(CC)CCN	9.93
COc1ccccc1/C(=N/CCC[NH+](C)C)c1ccccc1	4.62
c1ccc(-c2cc(-c3ccccc3)c(NCC[NH+]3CCOCC3)nn2)cc1	3.36
Cc1cc(-c2cc(C)n(C)n2)nn1C	2.22
Brc1ccc2c(c1)CCN2	3.7

SMILES	pKa
Cc1ccc2cccc(O)c2n1	5.63
CSc1ncnc2[nH]ncc12	1
Nc1cc(-c2ccccc2)nc2ccccc12	8.2
c1ccc(Nc2ncnc3[nH]ncc23)cc1	3.92
O=C(O)c1ncccn1	-1.13
CN(C)CCN(C)C	9.15
c1c[nH]c(Cc2[nH]cc[nH+]2)n1	4.9
CCCCC(CC)CNc1ncnc2[nH]ncc12 (stereo unspecified)	4.6
C=C[C@]1(O)C[C@@H](C)N[C@@H]2CCCC[C@H]21	9.98
Brc1ccc(-c2cnc(-c3ccccc3)o2)cc1	0.65
CCOC(=O)C1(c2ccccc2)CCN(C)CC1	8.6
CN(C)c1nc2ncncc2[nH]1	4.8
CCCC(=O)OCCN(C)C	8.31
CCN(CC)CCCC(C)Nc1cc(OC)cc2cccnc12 (stereo unspecified)	10.3
NC(=O)CCCc1ccncc1	5.64
NCc1ccc(F)c([O-])c1	10
CCCC[C@H](N)C(=O)[O-]	9.76
Cc1cn2nc(-c3ccccc3)ccc2n1	5.09
Cc1ccc(C(=O)S)cc1	-5.19
C/C(=N\c1ccccc1)Nc1ccccc1	8.3
N[C@H]1CCc2ccccc21	9.21
